Reference: a melting point compilation (Tetko et al.)

SMILES	melting point
O=C(Oc1cccc2cccnc12)c1ccccc1	119 °C
CC(=O)NC(=O)NC(C)=O	154 °C
CC(C)S(=O)(=O)c1cnc(N2CCCCC2)nc1N	155 to 158 °C
O=[N+]([O-])c1ccc(OC2OC(CO)C(O)C(O)C2O)cc1 (stereo not given)	211 °C
O=C(O)c1ccc(N2CCOCC2)s1	135 to 137 °C
Cc1coc2ccccc2c1=O	68 °C
Clc1cccc(Cl)c1N=C1NCCN1	130 °C
CCOC(=O)C(=CN)C(=O)OCC	63 °C
COc1ccc(CCN)cc1OC	12 to 15 °C
NC(=S)c1ccc(OCC(F)(F)F)nc1	120 to 123 °C
CC/C=C\C/C=C\C/C=C\CCCCCCCC(=O)O	-16.5 °C
COc1ccc(CCCCO)cc1	3.5 °C
CCOC(=O)CSc1nc(C)n[nH]1	99 to 101 °C
Fc1ccc(Br)c(CBr)c1	35 °C
COC(=O)C1=C(C)NC(=O)NC1c1cccc(OC)c1O (stereo not given)	208 °C
O=C(O)c1sccc1C1OCCO1	142 to 144 °C
Cc1cc(=O)oc2cc(O)ccc12	194 °C
O=c1[nH]c2ccccc2n1C1CCN(CCCC(c2ccc(F)cc2)c2ccc(F)cc2)CC1	216 °C

SMILES	melting point
O=C(NCCCc1ccccc1)c1cc([N+](=O)[O-])cc([N+](=O)[O-])c1	123 °C
O=C(O)CS	-11 °C
COC1=CC=C2C3Cc4ccc(OC)c5c4C2(CCN3C)C1O5 (stereo not given)	193 °C
C=CC(C)(O)CCC=C(C)C (stereo not given)	< 25 °C
CCOc1nc2ccccc2c(=O)n1Cc1cccnc1	67 to 70 °C
Cc1cc(C)c(CC(=O)c2cc3cc(Br)ccc3o2)c(C)c1	123 to 124 °C
CN(C)C(c1ccccc1)c1ccccc1	69 °C
S=C1NCCCCN1	178 to 180 °C
CC(=O)c1c(O)c(C)c(O)c(Cc2c(O)c3c(c(C(=O)C=Cc4ccccc4)c2O)OC(C)(C)C=C3)c1O	212 °C
O=C(NC(=O)c1c(F)cccc1F)Nc1cc(Cl)c(OC(F)(F)C(F)F)c(Cl)c1	204 °C
C[N+](C)(C)CC(=O)[O-]	301 °C
CCOC(=O)C(C/C=C1\OC(=O)C(OC)=C1OC)S(=O)(=O)c1ccccc1 (stereo not given)	99 to 101 °C
COC(=O)CCCCCCCCCCCC(=O)OC	36 °C
O=Cc1cc([N+](=O)[O-])ccc1Cl	79 °C
Cn1nc(N)c2c(=O)cc[nH]c21	215 to 220 °C
O=C(O)c1cc2cc([N+](=O)[O-])ccc2s1	238 to 241 °C
N#CCC(=O)c1ccco1	81 to 83 °C

Next, values leading:

melting point	SMILES
297 to 305 °C	CCOC(=O)c1cnc2ccc(OC(F)(F)F)cc2c1O
-25 °C	CC(=O)N(C)C(C)=O
100 °C	CC(C)NCC(O)c1cc(O)cc(O)c1 (stereo not given)
204 to 205 °C	CCOC(=O)c1c(NC(=S)Nc2ccc(Br)cc2)sc2c1CCCC2
101 °C	O=C(C=Cc1ccccc1)NCCO
126 to 128 °C	OCC1CCN(c2ncnc3ccsc23)CC1
133 °C	O=C(OC(=O)c1ccncc1)c1ccncc1
237 to 239 °C	Cc1c(NC(=O)C(C(F)(F)F)C(F)(F)F)c(=O)n(-c2ccccc2)n1C
113 to 115 °C	Cc1c(C=O)cnn1-c1ccc(F)cc1
125 to 127 °C	CCOC(=O)c1c(NC(=S)NCc2ccccc2)sc2c1CCCC2
135 °C	O=C(O)[C@@H]1CCN1C(=O)OCC1c2ccccc2-c2ccccc21
265 °C	Nc1nn2c(-c3ccccc3)cc(=O)[nH]c2c1/N=N/c1ccccc1
-50 °C	CC(C)C(=O)OCC(C)(C)C(O)C(C)C (stereo not given)
-94 °C	CC(C)CC(C)Br (stereo not given)
249 °C	O=C1C(C(O)c2ccc(Cl)cc2Cl)C(C(F)(F)F)=NN1c1ccccc1 (stereo not given)
